Measurements as given in ChEMBL document CHEMBL1201862, “PubChem BioAssay data set” (2004).
The source made the active and inactive calls.

How the values were obtained:
[1] = NIH-3T3 fibroblast cytotoxicity, dose response, cytotoxicity control, cell-based, fluorescence, Alamar Blue, secondary assay (AID 2327); type: functional;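 note: NIH-3T3 mouse fibroblasts cultured with fluconazole at 8 µg/mL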
[2] = Luminescence Cell-Based Dose Response HTS to Identify Activators of Luciferase Translation or Activity in H4 […] Cells. [Related pubchem assays: 1829 (Project Summary), 1814 (Primary HTS)]; type: functional
[3] = test system: H4; test: Luminescence Cell-Based Dose Response HTS to Identify Activators of 5'UTR Stem-Loop Driven Prion Protein mRNA Translation in H4 Neuroglioblastoma Cells. [Related pubchem assays: 1829 (Project Summary), 1814 (Primary HTS)]; type: functional; conditions: Homo sapiens
[4] = P. falciparum Dd2 growth inhibitors, dose response, SYBR Green, cherry-picked samples (AID 1159567); type: functional, cell-based
[5] = Luminescence Cell-Based Dose Confirmation HTS to Identify Inhibitors of Platelet Dense Granule Release. [Related pubchem assays: 1663 (Primary HTS), 1678 (Summary of Project)]; type: functional
[6] = molecular target: Luciferin 4-monooxygenase (Photinus pyralis, UniProt P08659); test: inhibition of purified Photinus pyralis luciferase – biochemical, luminescence, dose response (AID 1891)
[7] = molecular target: FAD-linked sulfhydryl oxidase ALR (Homo sapiens, UniProt P55789); test: ALR-catalysed DTT oxidation blockers – biochemical, H2O2 detection, luminescence, cherry-pick, dose response (AID 493248)
[8] = molecular target: T1, Heat shock factor protein 1 (Mus musculus, UniProt P38532); test: enhancement of HSF1-driven luciferase signal – cell-based, NIH3T3, luminescence, dose retest, confirmation (AID 435004); type: functional;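 note: stress induced by proteasome inhibitor MG132 added 30 min after compound; luciferase reporter driven by HSF1 response element in NIH3T3 cells; actives raise luminescence as potentiators of the MG132 stress response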
T1 sequence (P38532 whole entry): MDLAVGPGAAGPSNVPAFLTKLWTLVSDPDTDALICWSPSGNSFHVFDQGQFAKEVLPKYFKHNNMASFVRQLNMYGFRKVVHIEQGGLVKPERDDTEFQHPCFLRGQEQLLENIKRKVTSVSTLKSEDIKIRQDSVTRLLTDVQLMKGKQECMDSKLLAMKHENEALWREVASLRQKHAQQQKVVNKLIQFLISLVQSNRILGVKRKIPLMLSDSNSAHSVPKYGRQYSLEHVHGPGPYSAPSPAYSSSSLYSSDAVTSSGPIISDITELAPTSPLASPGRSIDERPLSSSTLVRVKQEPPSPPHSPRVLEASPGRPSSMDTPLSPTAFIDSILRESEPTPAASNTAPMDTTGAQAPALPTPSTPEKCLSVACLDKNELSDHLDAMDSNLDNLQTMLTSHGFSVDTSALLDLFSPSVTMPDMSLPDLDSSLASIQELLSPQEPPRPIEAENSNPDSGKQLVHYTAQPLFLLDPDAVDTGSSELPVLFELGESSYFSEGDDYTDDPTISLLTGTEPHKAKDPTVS

[9] = molecular target: T2, Fatty acid synthase (Homo sapiens, UniProt P49327); test: inhibition of human FAS-TE enzyme activity – biochemical, kinetic fluorescence intensity, dose response (AID 624326); type: functional;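 note: rate of fluorescence rise from hydrolysis of a fluorogenic O-methyl fluorescein ester substrate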
[10] = molecular target: T2, Fatty acid synthase; test: inhibition of human FAS-TE enzyme activity – biochemical, endpoint fluorescence intensity, uHTS hits, dose response (AID 624327); type: functional;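 note: fluorescence from hydrolysis of an O-methyl fluorescein acyl ester substrate by the enzyme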
[11] = viability of uninfected HEp-2 cells – cell-based, HTS, cytotoxicity control for RSV inhibitor project, dose response (AID 2410); type: functional; conditions: human respiratory syncytial virus
[12] = molecular target: T3, Protein RecA (Mycobacterium tuberculosis, UniProt P9WHJ3); test: Fluorescence Cell-Free Homogeneous Dose Retest to Identify Inhibitors of RecA-Intein Splicing Activity. [Related pubchem assays (depositor defined):AID2097, AID2223, AID489010, AID492950]; type: functional
T3 sequence (P9WHJ3 whole entry): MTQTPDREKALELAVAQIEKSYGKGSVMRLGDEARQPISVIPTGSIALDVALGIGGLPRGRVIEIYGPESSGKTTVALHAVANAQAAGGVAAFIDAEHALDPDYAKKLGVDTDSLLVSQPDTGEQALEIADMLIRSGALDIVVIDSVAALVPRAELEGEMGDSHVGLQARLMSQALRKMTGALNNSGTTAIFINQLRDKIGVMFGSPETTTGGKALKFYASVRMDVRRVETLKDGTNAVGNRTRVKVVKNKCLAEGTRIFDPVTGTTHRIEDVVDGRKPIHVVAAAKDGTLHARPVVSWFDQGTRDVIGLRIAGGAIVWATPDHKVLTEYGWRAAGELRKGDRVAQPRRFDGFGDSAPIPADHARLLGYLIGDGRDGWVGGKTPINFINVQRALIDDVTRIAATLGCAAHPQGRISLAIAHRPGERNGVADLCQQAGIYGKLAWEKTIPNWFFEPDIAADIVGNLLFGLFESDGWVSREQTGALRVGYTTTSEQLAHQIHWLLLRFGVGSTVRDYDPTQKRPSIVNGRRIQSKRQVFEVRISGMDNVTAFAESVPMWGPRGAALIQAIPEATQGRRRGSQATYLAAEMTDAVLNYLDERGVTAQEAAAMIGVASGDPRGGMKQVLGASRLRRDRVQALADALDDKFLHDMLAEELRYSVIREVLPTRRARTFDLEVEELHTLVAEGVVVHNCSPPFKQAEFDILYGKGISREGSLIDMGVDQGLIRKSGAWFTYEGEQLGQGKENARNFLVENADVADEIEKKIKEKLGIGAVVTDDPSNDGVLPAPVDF

[13] = molecular target: T4, Replicative DNA helicase DnaB (Mycobacterium tuberculosis, UniProt P9WMR3); test: DnaB intein splicing inhibitors, dose response, biochemical, cell-free fluorescence (AID 449749); type: functional
T4 sequence (P9WMR3 whole entry): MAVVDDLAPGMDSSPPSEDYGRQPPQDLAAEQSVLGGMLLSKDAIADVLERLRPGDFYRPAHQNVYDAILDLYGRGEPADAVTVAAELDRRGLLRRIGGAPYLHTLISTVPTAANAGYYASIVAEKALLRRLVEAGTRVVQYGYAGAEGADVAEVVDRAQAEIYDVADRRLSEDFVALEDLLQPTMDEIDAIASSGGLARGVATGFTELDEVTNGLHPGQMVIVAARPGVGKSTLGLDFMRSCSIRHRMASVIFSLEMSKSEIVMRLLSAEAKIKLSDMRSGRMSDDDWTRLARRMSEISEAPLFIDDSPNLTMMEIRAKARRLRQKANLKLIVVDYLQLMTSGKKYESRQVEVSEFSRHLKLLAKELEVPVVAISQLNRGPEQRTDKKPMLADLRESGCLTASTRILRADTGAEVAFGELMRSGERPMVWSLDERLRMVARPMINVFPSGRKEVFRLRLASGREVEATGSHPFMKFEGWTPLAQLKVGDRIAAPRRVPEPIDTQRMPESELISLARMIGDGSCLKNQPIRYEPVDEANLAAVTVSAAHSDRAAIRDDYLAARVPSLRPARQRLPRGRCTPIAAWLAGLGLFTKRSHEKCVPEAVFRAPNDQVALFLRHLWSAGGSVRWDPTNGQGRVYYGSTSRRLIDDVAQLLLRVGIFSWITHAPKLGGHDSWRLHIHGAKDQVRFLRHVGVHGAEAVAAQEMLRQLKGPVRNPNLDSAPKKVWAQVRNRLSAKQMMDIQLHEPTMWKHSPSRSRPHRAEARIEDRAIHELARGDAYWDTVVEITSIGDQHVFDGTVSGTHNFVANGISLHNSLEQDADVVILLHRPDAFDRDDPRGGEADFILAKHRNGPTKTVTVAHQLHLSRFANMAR

Sequence of FAD-linked sulfhydryl oxidase ALR (P55789 whole entry): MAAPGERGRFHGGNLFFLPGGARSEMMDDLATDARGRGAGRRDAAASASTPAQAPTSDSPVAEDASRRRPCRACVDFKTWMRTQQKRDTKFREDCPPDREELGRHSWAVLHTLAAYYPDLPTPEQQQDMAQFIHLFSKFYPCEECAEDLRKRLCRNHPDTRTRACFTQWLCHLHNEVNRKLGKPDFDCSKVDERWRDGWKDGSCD
T2 sequence (P49327 whole entry): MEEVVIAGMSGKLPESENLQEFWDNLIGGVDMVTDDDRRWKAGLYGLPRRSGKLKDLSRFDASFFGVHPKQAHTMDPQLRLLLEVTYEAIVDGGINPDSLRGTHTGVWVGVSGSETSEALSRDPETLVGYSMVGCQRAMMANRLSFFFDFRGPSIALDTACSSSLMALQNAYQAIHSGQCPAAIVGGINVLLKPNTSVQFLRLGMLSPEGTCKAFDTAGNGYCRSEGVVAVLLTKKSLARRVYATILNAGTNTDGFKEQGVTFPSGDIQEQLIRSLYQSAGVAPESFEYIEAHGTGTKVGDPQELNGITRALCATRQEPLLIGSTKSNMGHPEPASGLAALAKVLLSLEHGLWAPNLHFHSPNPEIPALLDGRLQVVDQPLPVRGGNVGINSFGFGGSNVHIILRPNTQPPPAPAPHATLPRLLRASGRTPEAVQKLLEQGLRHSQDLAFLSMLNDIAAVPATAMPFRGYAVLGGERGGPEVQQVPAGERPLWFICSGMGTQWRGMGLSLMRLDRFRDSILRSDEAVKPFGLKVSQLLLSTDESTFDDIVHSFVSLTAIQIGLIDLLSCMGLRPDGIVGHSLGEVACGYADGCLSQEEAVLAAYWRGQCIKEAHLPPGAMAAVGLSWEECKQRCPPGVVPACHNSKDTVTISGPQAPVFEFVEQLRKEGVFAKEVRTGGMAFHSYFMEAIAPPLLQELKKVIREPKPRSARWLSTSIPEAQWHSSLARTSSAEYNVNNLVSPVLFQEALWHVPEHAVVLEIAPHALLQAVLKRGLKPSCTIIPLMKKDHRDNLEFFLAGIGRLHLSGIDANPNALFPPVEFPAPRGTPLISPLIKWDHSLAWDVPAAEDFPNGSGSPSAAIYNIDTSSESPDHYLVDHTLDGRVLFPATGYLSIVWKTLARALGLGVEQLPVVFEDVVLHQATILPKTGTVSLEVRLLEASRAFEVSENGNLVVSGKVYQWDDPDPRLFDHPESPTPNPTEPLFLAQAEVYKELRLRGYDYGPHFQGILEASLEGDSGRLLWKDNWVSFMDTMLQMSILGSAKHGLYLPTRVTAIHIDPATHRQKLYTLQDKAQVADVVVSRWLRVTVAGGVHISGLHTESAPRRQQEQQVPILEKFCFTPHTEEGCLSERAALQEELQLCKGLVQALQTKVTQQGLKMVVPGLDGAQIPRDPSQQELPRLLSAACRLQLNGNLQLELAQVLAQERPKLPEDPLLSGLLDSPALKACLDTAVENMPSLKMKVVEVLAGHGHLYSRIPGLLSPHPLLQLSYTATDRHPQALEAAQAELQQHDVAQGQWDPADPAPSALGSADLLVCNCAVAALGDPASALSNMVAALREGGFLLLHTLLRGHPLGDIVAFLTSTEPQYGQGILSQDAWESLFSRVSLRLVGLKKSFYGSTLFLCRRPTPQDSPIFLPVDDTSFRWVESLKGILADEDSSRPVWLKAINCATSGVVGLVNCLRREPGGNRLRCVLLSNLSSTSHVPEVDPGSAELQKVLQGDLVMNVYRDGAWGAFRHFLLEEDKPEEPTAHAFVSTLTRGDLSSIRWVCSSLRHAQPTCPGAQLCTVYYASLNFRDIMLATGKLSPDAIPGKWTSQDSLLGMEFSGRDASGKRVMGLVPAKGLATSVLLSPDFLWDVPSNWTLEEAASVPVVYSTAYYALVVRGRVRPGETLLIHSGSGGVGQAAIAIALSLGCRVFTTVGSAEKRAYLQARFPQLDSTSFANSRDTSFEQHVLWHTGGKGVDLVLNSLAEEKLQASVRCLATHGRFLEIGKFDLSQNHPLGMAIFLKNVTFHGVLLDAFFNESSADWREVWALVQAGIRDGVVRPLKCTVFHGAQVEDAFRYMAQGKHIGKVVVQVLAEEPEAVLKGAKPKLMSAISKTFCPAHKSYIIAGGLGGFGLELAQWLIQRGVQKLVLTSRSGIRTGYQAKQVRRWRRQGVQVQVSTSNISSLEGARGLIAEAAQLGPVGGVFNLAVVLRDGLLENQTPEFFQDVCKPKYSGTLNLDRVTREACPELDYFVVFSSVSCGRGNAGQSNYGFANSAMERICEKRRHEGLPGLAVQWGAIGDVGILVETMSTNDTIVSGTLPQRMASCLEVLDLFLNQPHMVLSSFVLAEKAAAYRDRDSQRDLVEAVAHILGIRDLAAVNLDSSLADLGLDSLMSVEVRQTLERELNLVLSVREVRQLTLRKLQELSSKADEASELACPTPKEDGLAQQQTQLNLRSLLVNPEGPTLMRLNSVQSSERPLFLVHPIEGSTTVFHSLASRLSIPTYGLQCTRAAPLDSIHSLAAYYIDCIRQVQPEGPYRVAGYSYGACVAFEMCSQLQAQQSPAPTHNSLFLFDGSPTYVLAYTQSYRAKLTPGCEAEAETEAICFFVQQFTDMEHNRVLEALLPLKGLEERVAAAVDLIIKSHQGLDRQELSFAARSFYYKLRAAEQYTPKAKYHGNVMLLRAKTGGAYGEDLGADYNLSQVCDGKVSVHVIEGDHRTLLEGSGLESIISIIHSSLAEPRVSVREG
Sequence of Luciferin 4-monooxygenase (P08659 whole entry): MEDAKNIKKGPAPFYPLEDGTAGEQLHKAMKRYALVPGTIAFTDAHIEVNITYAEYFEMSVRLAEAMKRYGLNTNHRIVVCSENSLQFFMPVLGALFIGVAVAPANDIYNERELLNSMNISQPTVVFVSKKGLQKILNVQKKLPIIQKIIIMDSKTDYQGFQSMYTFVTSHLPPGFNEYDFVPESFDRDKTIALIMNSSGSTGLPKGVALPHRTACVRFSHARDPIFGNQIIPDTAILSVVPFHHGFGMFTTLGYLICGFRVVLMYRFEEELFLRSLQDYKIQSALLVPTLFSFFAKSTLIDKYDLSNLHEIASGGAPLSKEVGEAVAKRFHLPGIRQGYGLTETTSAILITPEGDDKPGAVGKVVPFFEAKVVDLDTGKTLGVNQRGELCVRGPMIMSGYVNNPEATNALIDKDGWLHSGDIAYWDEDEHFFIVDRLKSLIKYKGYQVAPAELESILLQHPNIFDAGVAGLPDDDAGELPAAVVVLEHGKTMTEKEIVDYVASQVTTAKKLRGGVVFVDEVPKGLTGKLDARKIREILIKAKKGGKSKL

In the case of Cc1cccc(NNC(=O)C(=O)NNc2cccc(C)c2)c1, the EC50 [1] is reported as 2.38 µM (active).
With Cc1ccc2oc(-c3cccc(NC(=O)Cn4cnc5c(=O)n(C)c(=O)n(C)c54)c3)nc2c1 the EC50 [2] was 42.3 µM (active) and the EC50 [3] was 6.94 µM (active).
In the case of CCCc1cn([C@@H]2C[C@@H]3O[C@H](CO)CC[C@@H]3O[C@@H]2CCc2ccc(-c3cccc(OC)c3)cc2)nn1, the AC50 [4] is reported as 2.81 µM (active).
In the case of CCNc1nc(Oc2ccc(=O)n(-c3ccccc3)n2)nc(N(C)C)n1, the EC50 [5] is reported as > 112 µM (not active) and the EC50 [6] is reported as > 112 µM (not active).
In the case of CCC1(c2ccc(Cl)cc2)N=C(S)N(c2ccccc2)N1 (centres undefined), the EC50 [1] is reported as 14.2 µM (active).
With CC[C@@H]1[C@H]2CCCC(=O)N3CC[C@@H](C[C@@H]1Nc1ccccc1)[C@@H]23 the AC50 [7] was 0.008 µM (active) and the EC50 [8] was > 260 µM (inactive).
For O[C@H]1C[C@H](c2ccccc2)N(CC2CCCCC2)C[C@@H]1n1cc(C2CC2)nn1, the IC50 [9] was 6.52 µM (active) and the IC50 [10] was 8.28 µM (active).
For CN(C)c1ccc(/C=N/NC(=O)CNC(=O)c2ccncc2)cc1, the AC50 [7] was 3.61 µM (active).
With CCN(CC)c1ccc(NS(=O)(=O)c2ccc(OC)cc2)cc1 the AC50 [7] was 5.11 µM (active).
For CC(=O)Nc1ccc(N2C(=O)CSC2c2ccc(F)cc2)cc1 (centres undefined), the AC50 [7] was < 0.005 µM (active).
For Cc1c(Br)c([N+](=O)[O-])nn1CC(=O)N1CCc2ccccc2C1, the IC50 [9] was 6.67 µM (active) and the IC50 [10] was 4.38 µM (active).
With CCS(=O)(=O)N1CCC2(CC1)CN(C(=O)Nc1cccc(F)c1)[C@H](CO)c1c2c2ccc(OC)cc2n1C the AC50 [4] was 4.52 µM (active).
For CCOC(=O)c1ccc2[nH]c3c(c2c1)CCCC3O (centres undefined), the CC50 [11] was 47.1 µM (active).
With COc1ccc(C2=NC(c3ccccc3)CO2)cc1 (centres undefined) the EC50 [2] was 39.5 µM (active).
In the case of CC(C(=O)NCCc1ccccc1)N1c2cccc3cccc(c23)S1(=O)=O (centres undefined), the CC50 [11] is reported as 45.6 µM (active).
In the case of Cc1onc(-c2ccccc2)c1C(=O)n1nnc2ccccc21, the EC50 [12] is reported as 13 µM (active), the AC50 [13] is reported as 7.85 µM (active) and the IC50 [9] is reported as 10.3 µM (active). For the same compound, the IC50 [10] was 12.9 µM (active).
